These results are taken from PubChem BioAssay (NCI).

Among the test systems are OVCAR-5 ovarian; NCI/ADR-RES ovarian; SK-MEL-2 melanoma; MDA-MB-231 breast; SF-539 CNS; EKVX NSCLC; HCC-2998 colon; HL-60(TB) leukemia; IGROV1 ovarian; OVCAR-3 ovarian.
Holding throughout (assay): DTP human tumour cell line panel, 48 h

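In this assay, cells in 96-well plates receive the compound at five concentrations for 48 hours. Endpoints are linearly interpolated between the surrounding concentrations. The concentration for 50% growth inhibition is given as GI50. Definition used: TGI = concentration required for complete inhibition of growth.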 Bounds are passed on as bounds.

In general, GI50 refers to the concentration at which growth is held to half of that of the control. Broadly, the TGI is the concentration at which net growth stops.

Turning to `NCCCn1c2c(c3ccc([N+](=O)[O-])cc3c1=O)C(=O)c1cc(Cl)ccc1-2`, the GI50 was 0.0265 µM in the assay with OVCAR-5 ovarian; under 0.01 µM in the assay with NCI/ADR-RES ovarian; 0.113 µM with SK-MEL-2 melanoma; 0.218 µM with MDA-MB-231 breast; under 0.01 µM in the assay on SF-539 CNS; 0.0241 µM with EKVX NSCLC. For the same compound, the figures for the GI50 with HCC-2998 colon and in the assay with HL-60(TB) leukemia were under 0.0138 µM and under 0.01 µM, respectively. Moreover, the TGI with OVCAR-5 ovarian came to 0.193 µM; in the assay on NCI/ADR-RES ovarian, 0.292 µM; in the assay on SK-MEL-2 melanoma, 0.275 µM; in the assay on MDA-MB-231 breast, 0.64 µM; in the assay with SF-539 CNS, 0.0613 µM; in the assay with EKVX NSCLC, 0.189 µM. Moreover, the total growth inhibition concentration (TGI) in the assay with HCC-2998 colon was 0.119 µM; in the assay on HL-60(TB) leukemia it was under 0.016 µM.
Turning to `COc1cccc2cc(N(C)c3nc(C)nc4ccsc34)ccc12`, the GI50 in the assay with OVCAR-5 ovarian is under 0.01 µM; with NCI/ADR-RES ovarian, under 0.01 µM; in the assay on SK-MEL-2 melanoma, 0.123 µM; with MDA-MB-231 breast it was under 0.01 µM; with SF-539 CNS, under 0.01 µM; in the assay on IGROV1 ovarian, under 0.01 µM. Moreover, the concentration for 50% growth inhibition (GI50) in the assay with EKVX NSCLC, with OVCAR-3 ovarian, in the assay with HCC-2998 colon and in the assay on HL-60(TB) leukemia was under 0.01 µM in each case. In addition, the concentration for total growth inhibition (TGI) in the assay with OVCAR-5 ovarian was 17.4 µM; in the assay with NCI/ADR-RES ovarian, 11 µM; in the assay on SK-MEL-2 melanoma, 17.3 µM; in the assay with MDA-MB-231 breast it was 15 µM; with SF-539 CNS, under 0.01 µM; in the assay with IGROV1 ovarian, 14.5 µM. The total growth inhibition concentration (TGI) was 21.1 µM with EKVX NSCLC, 8.01 µM in the assay on HCC-2998 colon and under 0.01 µM with HL-60(TB) leukemia.
Consider `Clc1ccc2c(NCCN3CCN(c4ccnc(N5CCCC5)n4)CC3)ccnc2c1`, for which the GI50 is 5.1 µM in the assay with OVCAR-5 ovarian; 4.12 µM in the assay with NCI/ADR-RES ovarian; 2.61 µM in the assay on SK-MEL-2 melanoma; 2.06 µM in the assay with MDA-MB-231 breast; 1.73 µM with SF-539 CNS; 4.48 µM in the assay with IGROV1 ovarian. Moreover, the GI50 in the assay on EKVX NSCLC is 10.2 µM; in the assay on OVCAR-3 ovarian, 5.3 µM; in the assay on HCC-2998 colon it was 1.94 µM; in the assay on HL-60(TB) leukemia, 2.37 µM. Further, the total growth inhibition concentration (TGI) in the assay on OVCAR-5 ovarian came out at 21.4 µM; in the assay with NCI/ADR-RES ovarian, 18.1 µM; with SK-MEL-2 melanoma it was 6.77 µM; in the assay with MDA-MB-231 breast it was 5.89 µM; in the assay with SF-539 CNS, 3.67 µM; with IGROV1 ovarian, 23.7 µM. The total growth inhibition concentration (TGI) in the assay on EKVX NSCLC was determined as 24.4 µM; in the assay with OVCAR-3 ovarian it was 21.2 µM; in the assay on HCC-2998 colon it was 4.08 µM; with HL-60(TB) leukemia, 6.25 µM.
On to `Cc1[nH]ccc2cc3nc4ccccc4c3cc12`, for which the GI50 in the assay on OVCAR-5 ovarian was 3.35 µM; in the assay on NCI/ADR-RES ovarian it was 1.8 µM; in the assay on SK-MEL-2 melanoma it was 5.17 µM; in the assay with MDA-MB-231 breast, 2 µM; with SF-539 CNS, 3.07 µM; in the assay with IGROV1 ovarian it was 3.65 µM. The GI50 in the assay with OVCAR-3 ovarian was 3.04 µM; in the assay on HCC-2998 colon, 2.85 µM; in the assay with HL-60(TB) leukemia it was 3.48 µM. In addition, the total growth inhibition concentration (TGI) in the assay on OVCAR-5 ovarian worked out at 11.9 µM; in the assay with NCI/ADR-RES ovarian, 11.9 µM; with SK-MEL-2 melanoma, 16.5 µM; in the assay with MDA-MB-231 breast it was 8.24 µM; with SF-539 CNS, 12.6 µM; in the assay on IGROV1 ovarian it was 15.2 µM. Also, the figures for the total growth inhibition concentration (TGI) in the assay with OVCAR-3 ovarian, in the assay with HCC-2998 colon and in the assay with HL-60(TB) leukemia were 10.7 µM, 13.3 µM and 14.9 µM, respectively.
With `CSc1ccc(C(=O)/C=C/c2ccc(F)cc2)cc1`, the GI50 with OVCAR-5 ovarian was 99.6 µM; in the assay with NCI/ADR-RES ovarian, over 100 µM; in the assay with SK-MEL-2 melanoma, over 100 µM; in the assay on MDA-MB-231 breast it was 74.6 µM; in the assay on SF-539 CNS, 49.6 µM; with IGROV1 ovarian it was 28.2 µM. In addition, the values for the GI50 in the assay on EKVX NSCLC, in the assay on HCC-2998 colon and in the assay with HL-60(TB) leukemia were over 100 µM, 41.8 µM and 48.9 µM, respectively. Further, the TGI was over 100 µM in the assay on OVCAR-5 ovarian; over 100 µM in the assay on NCI/ADR-RES ovarian; over 100 µM in the assay on SK-MEL-2 melanoma; over 100 µM in the assay with MDA-MB-231 breast; over 100 µM with SF-539 CNS; 65.9 µM with IGROV1 ovarian. The total growth inhibition concentration (TGI) in the assay with EKVX NSCLC, in the assay with HCC-2998 colon and in the assay on HL-60(TB) leukemia was over 100 µM in each case.
On to `Nc1n[n+]([O-])c2cnccc2[n+]1[O-]`, for which the concentration for total growth inhibition (TGI) with OVCAR-5 ovarian, in the assay on NCI/ADR-RES ovarian, in the assay with SK-MEL-2 melanoma, in the assay with MDA-MB-231 breast, in the assay with SF-539 CNS and in the assay with IGROV1 ovarian was over 100 µM each time. The TGI is over 100 µM in the assay on OVCAR-3 ovarian, over 100 µM in the assay on HCC-2998 colon and 47.7 µM with HL-60(TB) leukemia.
Consider `COc1ccc(-c2cc3nccn3c(Nc3ncccc3C(N)=O)n2)cc1OC`, for which the GI50 is over 100 µM with OVCAR-5 ovarian; over 26.6 µM with NCI/ADR-RES ovarian; 0.824 µM with SK-MEL-2 melanoma; over 100 µM in the assay on MDA-MB-231 breast; 5.86 µM in the assay with SF-539 CNS; 0.472 µM with IGROV1 ovarian. In addition, the GI50 with OVCAR-3 ovarian was over 47 µM; in the assay on HCC-2998 colon, over 100 µM; with HL-60(TB) leukemia, 2.13 µM. Moreover, the TGI with OVCAR-5 ovarian was over 100 µM; with NCI/ADR-RES ovarian it was over 100 µM; in the assay with SK-MEL-2 melanoma, over 100 µM; in the assay on MDA-MB-231 breast it was over 100 µM; in the assay with SF-539 CNS, over 100 µM; in the assay on IGROV1 ovarian it was 6.19 µM. Further, the results for the total growth inhibition concentration (TGI) in the assay on OVCAR-3 ovarian, with HCC-2998 colon and in the assay on HL-60(TB) leukemia were over 100 µM, over 100 µM and 24.2 µM, respectively.
As to `Cc1sc2c(c1C)C(c1ccc(Cl)cc1)=N[C@@H](CC(=O)Nc1ccc(O)cc1)c1nnc(C)n1-2`, the GI50 with OVCAR-5 ovarian is 11.6 µM; with NCI/ADR-RES ovarian, 9.45 µM; in the assay with SK-MEL-2 melanoma, 3.31 µM; with MDA-MB-231 breast it was 0.18 µM; with SF-539 CNS, 0.629 µM; with IGROV1 ovarian, 2.5 µM. Moreover, the GI50 with OVCAR-3 ovarian is 0.888 µM; with HCC-2998 colon, 2.48 µM; with HL-60(TB) leukemia it was 0.179 µM. The total growth inhibition concentration (TGI) was 30.3 µM with OVCAR-5 ovarian; 69.7 µM in the assay on NCI/ADR-RES ovarian; 22 µM in the assay with SK-MEL-2 melanoma; 21.7 µM with MDA-MB-231 breast; 19 µM in the assay on SF-539 CNS; 39.9 µM with IGROV1 ovarian. For the same compound, the concentration for total growth inhibition (TGI) in the assay on OVCAR-3 ovarian is 18.7 µM; in the assay with HCC-2998 colon it was 21.8 µM; in the assay on HL-60(TB) leukemia it was 8.21 µM.
